In patent US9464057B2, “Anti-malarial agents” (MMV MEDICINES FOR MALARIA VENTURE, priority 2013, dated 2016):
Like-named read-outs stand apart in the source and are kept apart here.

Assays:
[1] = tested on: multidrug-resistant P. falciparum line Dd2; assay: P. falciparum growth inhibition by 3H-hypoxanthine incorporation; type: cell-based; conditions: Plasmodium falciparum
Experimental: The ability of pyrazole derivatives according to the invention to kill P. falciparum parasites and/or to inhibit its proliferation is assayed through their ability to inhibit Plasmodium falciparum growth determined by 3H-hypoxanthine incorporation. The assay is derived from the method originally described by Desjardin et al., 1979, Antimicrob. Agents Chemother, 16: 710-718 which was modified. The method assesses parasite growth as reflected by incorporation of radiolabeled hypoxanthine by parasites. P. falciparum in culture are exposed to graded dilutions of test compounds for 48 h and incorporation of 3H-hypoxanthine over the last 24 h into parasite nucleic acids is determined by liquid scintillation spectroscopy. The specific method is described below: The test compounds are diluted by three-fold serial dilutions, in triplicate wells, using low hypoxanthine medium (LHM) RPMI (Roswell Park Memorial Institute medium), 1640, 0.5% Albumax, 0.2% sodium bicarbonate, 0.025M HEPES, 2 mM glutamine, 50 μg/ml Gentamicin, 2.5 μg/ml hypoxanthine, pH 7.35) in sterile flat-bottomed 96 well plates. Final volume in each well is 100 μl. Triplicate control wells contain 100 μl LHM without any inhibitor.
The mixed stage parasitized red blood cells (RBCs), containing greater than 50% ring stage parasites, are diluted to 1% parasitemia using uninfected RBCs, washed two times with LHM, and diluted to 3% hematocrit with LHM. 100 μl of diluted parasites is added to each well. Thus, the final hematocrit is 1.5% with 0.5% parasitemia at the beginning of the assay.
The plates comprising the test wells are placed in a humidified chamber, gassed with 5% CO2, 5% O2, 90% N2, and placed in a 36.5° C. incubator for 24 h. After 24 h incubation, 0.25 μCi of 3H-hypoxanthine in 20 μL LHM is added to each well. Plates are returned to the chamber, gassed, and incubated for an additional 24 h. At the end of the second 24 h incubation, plates are transferred to a −80° C. freezer and stored for a minimum of 2 h. then Plates are thawed and the lysed material is transferred to EasyTabC glass fiber filters (Perkin Elmer; PE) using a Packard Filtermate 196 Cell Harvester. Filters are dried, placed in an Omnifilter Cassette (Perkin Elmer), and 30 μl of Microscint-O-high efficiency liquid scintillation cocktail (PE) is added to each 3 well. The plates are sealed with a Top-Seal for 96 well microplates (Perkin Elmer) and counted using a Packard TopCount-1 microplate liquid scintillation counter. Results are tabulated and graphed using Prism GraphPad software to determine effective EC50 values (concentration at which 50% parasite growth inhibition occurs).

[2] = tested on: Plasmodium falciparum Pf3D70087/N9; assay: in vivo therapeutic efficacy, 4-day-test in humanized mice; set-up: species or system NOD-scidIL2Rγnull mice engrafted with human erythrocytes; conditions: single oral dose per day for four consecutive days; for ED50: 50% inhibition of blood parasitemia by flow cytometry; for ED90: 90% inhibition of blood parasitemia by flow cytometry
Experimental: The ability of pyrazole derivatives according to the invention to show antimalarial efficacy in vivo can be tested by using the protocols described by Jimenez-Diaz et al., 2009, Antimicrob. Agents Chemother., 53:4533-4536. The therapeutic efficacy of compounds of invention against Plasmodium falciparum Pf3D70087/N9 growing in peripheral blood of NOD-scidIL2Rγnull mice engrafted with human erythrocytes. Efficacy is assessed by administering varying amounts of single oral doses of compounds per day for four consecutive days (4-day-test) and measuring their effect on blood parasitemia by flow cytometry. This assay provides effective doses of compounds capable of inhibiting 50% (ED50) and 90% (ED90) levels of parasitemia.

[3] = tested on: field isolates of Plasmodium falciparum; assay: ex vivo parasite growth inhibition assay, field isolates of Plasmodium falciparum; type: cell-based; conditions: P. falciparum field isolates (15 isolates), read-out: Median EC50
Text: (§1) Compound 2 has also been tested against field isolates of Plasmodium falciparum (15 isolates) and Plasmodium vivax (15 isolates) using an ex vivo parasite growth inhibition assay as described in Marfurt et al., 2011, Antimicrob Agents Chemother., 55(3): 961.

[4] = tested on: field isolates of Plasmodium vivax; assay: ex vivo parasite growth inhibition assay, field isolates of Plasmodium vivax; type: cell-based; conditions: P. vivax field isolates (15 isolates), read-out: Median EC50
Text: as §1

[5] = P. falciparum Dd2, 48 h exposure, 3H-hypoxanthine incorporation over last 24 h, read-out: EC50 (concentration at which 50% parasite growth inhibition occurs)
[6] = DD2, read-out: EC50 (concentration at which 50% parasite growth inhibition occurs)

Row | Compound | EC50 [1, 5] [nM] | ED50 [2] [mg/kg per day] | EC50 [1, 6] [nM] | ED90 [2] [mg/kg per day] | EC50 [3] [nM] | EC50 [4] [nM]
1 | C[C@@H]1CC[C@H]2[C@@H](C)C(=O)O[C@@H]3O[C@@]4(C)CC[C@@H]1[C@]32OO4 [Artemisinin, reference compound] | 12 | – | – | – | – | –
2 | O=C1C(O)=C([C@H]2CC[C@H](c3ccc(Cl)cc3)CC2)C(=O)c2ccccc21 [Atovaquone, reference compound] | 1 | – | – | – | – | –
3 | CCN(CC)CCCC(C)Nc1ccnc2cc(Cl)ccc12 (stereo not shown) [Chloroquine, reference compound] | – | 4.3 | – | – | – | –
4 | CC(C)c1nc2ccccc2n1CC(=O)Nc1c(-c2ccc(Cl)cc2F)c(C(F)(F)F)nn1C [Compound 1, N-(4-(4-chloro-2-fluorophenyl)-3-(trifluoromethyl)-1-methyl-1H-pyrazol-5-yl)-2-(2-isopropyl-1H-benzo[d]imidazol-1-yl)acetamide] | – | 0.53 | 0.7 | 0.94 | – | –
5 | Cc1nn(C)c(NC(=O)Cn2c(C(C)C)nc3ccccc32)c1-c1ccc(Cl)cc1F [Compound 2, N-(4-(4-chloro-2-fluorophenyl)-1,3-dimethyl-M-pyrazol-5-yl)-2-(2-isopropyl-M-benzo[d]imidazol-1-yl)acetamide] | – | 1.7 | 5.4 | 2.5 | 15 | 10
6 | Cn1nc(C(F)(F)F)c(-c2ccc(F)cc2)c1NC(=O)C[C@H](N)Cc1ccc(F)cc1 [Compound 3, (R)-3-amino-N-(3-(trifluoromethyl)-4-(4-fluorophenyl)-1-methyl-1H-pyrazol-5-yl)-4-(4-fluorophenyl)butanamide] | – | 1.8 | 0.2 | 3.0 | – | –
7 | Cc1nn(C)c(NC(=O)C[C@H](N)Cc2ccc(F)cc2)c1-c1ccc(F)cc1 [Compound 4, (R)-3-amino-4-(4-fluorophenyl)-N-(4-(4-fluorophenyl)-1,3-dimethyl-1H-pyrazol-5-yl) butanamide] | – | 3.0 | 8 | 4.1 | – | –
8 | COc1ccc(-c2c(C(F)(F)F)nn(C)c2NC(=O)Nc2ccc(F)cc2F)cc1 [Reference 1, reference compound] | 150 | – | – | – | – | –
9 | Cn1nc(C(F)(F)F)c(-c2ccc(Br)cc2)c1NC(=O)Cc1ccccc1F [Reference 2, reference compound] | 50 | – | – | – | – | –
